These results are taken from patent publication US8785452B2, “Anti-infective compounds” (priority 2008, dated 2014).

The structures appear in SMILES notation.

As usually defined, the inhibition is the change of the read-out against control, counted positive when it falls.

The first test deals with M. tuberculosis H37Rv-GFP. Kind of test: microbe, parasite or virus in culture. The test is classed as cell-based, Mycobacterium tuberculosis. The conditions noted are these: Mycobacterium tuberculosis, H37RV, Macrophage, read-out: Primary QIM % Inhibition.
On to `O=C(c1cc([N+](=O)[O-])cc([N+](=O)[O-])c1)N1CCc2ccccc2C1` [IPK 000 046 86], for which the inhibition at 20 µM came out at 26.6%.
As for `CCCCOC(=O)c1cc([N+](=O)[O-])c(Sc2nc3ccccc3[nH]2)c([N+](=O)[O-])c1` [IPK 000 141 58], the inhibition at 20 µM stood at 58.2%.
On to `Cc1ccccc1C(=O)NNC(=O)c1cc([N+](=O)[O-])cc([N+](=O)[O-])c1` [IPK 000 169 30], for which the inhibition at 20 µM came to 56.2%.
Regarding `O=[N+]([O-])c1ccc(NNc2ccccc2)c([N+](=O)[O-])c1` [IPK 000 171 46], the inhibition at 20 µM was determined as 24.3%.

The same test, now with this note: Mycobacterium tuberculosis, H37RV, Macrophage, read-out: QIM Confirm % Inhibition 20 uM.
Regarding `O=C(c1cc([N+](=O)[O-])cc([N+](=O)[O-])c1)N1CCc2ccccc2C1` [IPK 000 046 86], the inhibition at 20 µM is 40.8%.
Consider `CCCCOC(=O)c1cc([N+](=O)[O-])c(Sc2nc3ccccc3[nH]2)c([N+](=O)[O-])c1` [IPK 000 141 58], for which the inhibition at 20 µM is 59.2%.
As to `Cc1ccccc1C(=O)NNC(=O)c1cc([N+](=O)[O-])cc([N+](=O)[O-])c1` [IPK 000 169 30], the inhibition at 20 µM is 73.7%.
The same measure, in the same setting: in the case of `O=[N+]([O-])c1ccc(NNc2ccccc2)c([N+](=O)[O-])c1` [IPK 000 171 46] it was 72.1%.

Staying with this test, now noted: Mycobacterium tuberculosis, H37RV, Macrophage; confirmation, 20 uM, intracellular; read-out: QIM Confirm % Inhibition 20 uM.
For `Cc1ccc(CNC(=O)c2ccc(F)cc2)cc1` [IPK 000 205 42], the inhibition at 20 µM is 69.3%.
As for `Cc1ccoc1/C=N/NC(=O)c1ccncc1` [IPK 000 193 76], the inhibition at 20 µM was found to be 97.4%.
For `O=[N+]([O-])c1ccc(/C=N/N(CCO)C2=NS(=O)(=O)c3ccccc32)o1` [IPK 000 222 32], the inhibition at 20 µM was 63.2%.
Same read-out and setting: then `CCC(=O)Nc1ccc(-c2csc(N/N=C/c3ccc(SC)cc3)n2)cc1` [IPK 000 163 27], with 17.9%.
The same measure, in the same setting: in the case of `Cc1cc(C)nc(NC(=N)Nc2ccc(OCc3ccc(Cl)cc3)cc2)n1` [IPK 000 163 93] it was 89.9%.
For the molecule `CCOc1ccc(NCC(=O)n2nc(C)cc2C)cc1` [IPK 000 234 61], the inhibition at 20 µM was -1.6%.
With `CCC1=NN(C(=O)c2ccncc2)C(O)(C(F)(F)F)C1` (stereo not drawn) [IPK 000 134 50], the inhibition at 20 µM was 101%.
Consider `CC(C)c1ccc(OCC(=O)N/N=C\c2ccccc2OCC(=O)O)cc1` [IPK 000 138 43], for which the inhibition at 20 µM came out at 78.9%.
Same read-out and setting: in the case of `CCc1ccc(C2(O)CC(C(F)(F)F)=NN2C(=O)c2ccncc2)cc1` (stereo not drawn) [IPK 000 134 51] it was 102%.
In the case of `O=C(Nc1ccc(Cl)cc1)Nc1ccc(C(F)(F)F)cc1` [IPK 000 146 98], the inhibition at 20 µM is 26.5%.
For `O=C(CCC(=O)Nc1ccccc1)N/N=C/c1ccc([N+](=O)[O-])o1` [IPK 000 262 39], the inhibition at 20 µM came to 29.5%.
The same measure, in the same setting: in the case of `O=C(Nc1ccc(C(F)(F)F)cc1)Nc1cccc(Cl)c1` [IPK 000 147 54] it was 10.1%; in that of `O=C(COc1ccccc1)N/N=C/c1ccc([N+](=O)[O-])o1` [IPK 000 149 78], 3.6%; in that of `Cc1ccsc1/C=N/NC(=O)Cc1cc(=O)[nH][nH]1` [IPK 000 219 30], 93%.
Consider `O=C(COc1ccc(F)cc1)Nc1nccs1` [IPK 000 247 44], for which the inhibition at 20 µM was found to be 97.1%.
For `CC(=O)OC(OC(C)=O)c1ccc([N+](=O)[O-])s1` [IPK 000 155 36], the inhibition at 20 µM is 74%.
`CCOc1cc(/C=N\NC(=O)COc2ccc(C(C)C)cc2)ccc1O` [IPK 000 138 40]: the inhibition at 20 µM was 86.4%.
On to `NNC(=O)c1ccc(COc2ccc(Cl)cc2Cl)o1` [IPK 000 140 81], for which the inhibition at 20 µM was 91.8%.
Regarding `C/C(=N\NC(=O)c1ccccc1)c1ccc2ccccc2c1` [IPK 000 139 17], the inhibition at 20 µM stood at 65.8%.
For the molecule `C=CCc1ccc(OCC(=O)N/N=C/c2ccc([N+](=O)[O-])o2)c(OC)c1` [IPK 000 148 44], the inhibition at 20 µM was 8.2%.
The same measure, in the same setting: then `CSc1ccc(/C=N/c2ccccc2O)cc1` [IPK 000 169 96], with 14.7%.
Still for that read-out and setting: then `O=[N+]([O-])c1ccc(CSc2nnnn2C2CCCCC2)cc1` [IPK 000 258 07], with 72.7%; and `CCOC(=O)C1=C(COc2ccc(F)cc2)NC(=O)NC1c1ccc2c(c1)OCO2` (stereo not drawn) [IPK 000 251 80], with 38.2%.
Regarding `Cc1ccc(NC(=O)c2ccc(F)cc2)cc1Cl` [IPK 000 205 22], the inhibition at 20 µM was 69.7%.
On the same count and under the same terms, in the case of `CC/C(=N/Nc1nc(-c2ccc(NC(C)=O)cc2)cs1)c1ccccc1` [IPK 000 163 64] it was 74.2%; in that of `Cc1ccc2nc(-c3ccc(NC(=O)CN4CCCC4)cc3)sc2c1` [IPK 000 125 61], 85.8%.
As for `C/C(Cn1nnc([N+](=O)[O-])n1)=N\Nc1c(Cl)cc(Cl)cc1Cl` [IPK 000 150 48], the inhibition at 20 µM was 16.1%.
For the molecule `COc1cccc(C(CC(=O)c2ccc(Cl)cc2)C(C#N)C#N)c1` (stereo not drawn) [IPK 000 130 54], the inhibition at 20 µM was 65.8%.
On to `CC(C)(C)c1ccc(O)c(C(=O)Oc2ccccc2)c1` [IPK 000 143 45], for which the inhibition at 20 µM is 83.5%.
Regarding `CCOc1ncccc1C(=O)N/N=C/c1ccc([N+](=O)[O-])o1` [IPK 000 148 65], the inhibition at 20 µM was found to be 29.1%.
`Cc1ccc(-c2c(CN3CCCCC3)c(N)nc3ccccc23)cc1` [IPK 000 222 00]: the inhibition at 20 µM amounted to 86.2%.
For the molecule `O=C(Nc1ccc(Cl)c(Cl)c1)c1ccc(Cn2cc(Br)cn2)cc1` [IPK 000 180 17], the inhibition at 20 µM was 34.5%.
Same read-out and setting: in the case of `Cc1c(Cl)cccc1/N=C/c1ccc([N+](=O)[O-])o1` [IPK 000 167 54] it was 16.5%; in that of `O=C(CCc1ccccc1)N1CCN(Cc2ccccc2)CC1` [IPK 000 126 73], 60.8%.
On to `ON=C(/C=C/c1ccccc1)/C=C/c1ccccc1` [IPK 000 168 10], for which the inhibition at 20 µM was 65.6%.
On the same count and under the same terms, then `C/C(=N\NC(=S)Nc1cccc(C)c1)c1ccccc1O` [IPK 000 173 06], with 15.8%; and `O=C(c1ccc([N+](=O)[O-])o1)N1CCCc2ccccc21` [IPK 000 161 32], with 17.8%; and `O=C(N/N=C/c1c(Cl)cccc1Cl)c1ccncc1` [IPK 000 170 33], with 96.3%.

Staying with this test, now noted: Mycobacterium tuberculosis, H37RV, Macrophage; primary screen, 20 μM, intracellular; read-out: Primary QIM % Inhibition.
On to `Cc1ccc(CNC(=O)c2ccc(F)cc2)cc1` [IPK 000 205 42], for which the inhibition at 20 µM was 71.5%.
For `Cc1ccoc1/C=N/NC(=O)c1ccncc1` [IPK 000 193 76], the inhibition at 20 µM came to 81.4%.
As to `O=[N+]([O-])c1ccc(/C=N/N(CCO)C2=NS(=O)(=O)c3ccccc32)o1` [IPK 000 222 32], the inhibition at 20 µM worked out at 16.2%.
Turning to `CCC(=O)Nc1ccc(-c2csc(N/N=C/c3ccc(SC)cc3)n2)cc1` [IPK 000 163 27], the inhibition at 20 µM came out at 69.5%.
Still for that read-out and setting: in the case of `Cc1cc(C)nc(NC(=N)Nc2ccc(OCc3ccc(Cl)cc3)cc2)n1` [IPK 000 163 93] it was 66.7%; in that of `CCOc1ccc(NCC(=O)n2nc(C)cc2C)cc1` [IPK 000 234 61], -61%; in that of `CCC1=NN(C(=O)c2ccncc2)C(O)(C(F)(F)F)C1` (stereo not drawn) [IPK 000 134 50], 99.7%.
Take `CC(C)c1ccc(OCC(=O)N/N=C\c2ccccc2OCC(=O)O)cc1` [IPK 000 138 43]: the inhibition at 20 µM was found to be 76.3%.
Still for that read-out and setting: in the case of `CCc1ccc(C2(O)CC(C(F)(F)F)=NN2C(=O)c2ccncc2)cc1` (stereo not drawn) [IPK 000 134 51] it was 90.2%.
As for `O=C(Nc1ccc(Cl)cc1)Nc1ccc(C(F)(F)F)cc1` [IPK 000 146 98], the inhibition at 20 µM turned out to be 55.8%.
The same measure, in the same setting: in the case of `O=C(CCC(=O)Nc1ccccc1)N/N=C/c1ccc([N+](=O)[O-])o1` [IPK 000 262 39] it was 2.1%.
On the same count and under the same terms, then `O=C(Nc1ccc(C(F)(F)F)cc1)Nc1cccc(Cl)c1` [IPK 000 147 54], with -10.9%; and `O=C(COc1ccccc1)N/N=C/c1ccc([N+](=O)[O-])o1` [IPK 000 149 78], with 15.2%; and `Cc1ccsc1/C=N/NC(=O)Cc1cc(=O)[nH][nH]1` [IPK 000 219 30], with 104%.
With `O=C(COc1ccc(F)cc1)Nc1nccs1` [IPK 000 247 44], the inhibition at 20 µM was found to be 89.1%.
`CC(=O)OC(OC(C)=O)c1ccc([N+](=O)[O-])s1` [IPK 000 155 36]: the inhibition at 20 µM was found to be 67.8%.
Same read-out and setting: then `CCOc1cc(/C=N\NC(=O)COc2ccc(C(C)C)cc2)ccc1O` [IPK 000 138 40], with 75%.
Regarding `NNC(=O)c1ccc(COc2ccc(Cl)cc2Cl)o1` [IPK 000 140 81], the inhibition at 20 µM came to 94.6%.
Take `C/C(=N\NC(=O)c1ccccc1)c1ccc2ccccc2c1` [IPK 000 139 17]: the inhibition at 20 µM came to 72.9%.
Still for that read-out and setting: then `C=CCc1ccc(OCC(=O)N/N=C/c2ccc([N+](=O)[O-])o2)c(OC)c1` [IPK 000 148 44], with -15.1%; and `CSc1ccc(/C=N/c2ccccc2O)cc1` [IPK 000 169 96], with -50.2%.
On the same count and under the same terms, then `O=[N+]([O-])c1ccc(CSc2nnnn2C2CCCCC2)cc1` [IPK 000 258 07], with 49.9%; and `CCOC(=O)C1=C(COc2ccc(F)cc2)NC(=O)NC1c1ccc2c(c1)OCO2` (stereo not drawn) [IPK 000 251 80], with 25.5%.
On the same count and under the same terms, in the case of `Cc1ccc(NC(=O)c2ccc(F)cc2)cc1Cl` [IPK 000 205 22] it was 85.1%; in that of `CC/C(=N/Nc1nc(-c2ccc(NC(C)=O)cc2)cs1)c1ccccc1` [IPK 000 163 64], 74.9%; in that of `Cc1ccc2nc(-c3ccc(NC(=O)CN4CCCC4)cc3)sc2c1` [IPK 000 125 61], 44.1%.
Take `C/C(Cn1nnc([N+](=O)[O-])n1)=N\Nc1c(Cl)cc(Cl)cc1Cl` [IPK 000 150 48]: the inhibition at 20 µM was -96.3%.
Turning to `COc1cccc(C(CC(=O)c2ccc(Cl)cc2)C(C#N)C#N)c1` (stereo not drawn) [IPK 000 130 54], the inhibition at 20 µM was determined as 66.7%.
As to `CC(C)(C)c1ccc(O)c(C(=O)Oc2ccccc2)c1` [IPK 000 143 45], the inhibition at 20 µM came to 81.2%.
Same read-out and setting: in the case of `CCOc1ncccc1C(=O)N/N=C/c1ccc([N+](=O)[O-])o1` [IPK 000 148 65] it was 41.2%; in that of `Cc1ccc(-c2c(CN3CCCCC3)c(N)nc3ccccc23)cc1` [IPK 000 222 00], 74.4%; in that of `O=C(Nc1ccc(Cl)c(Cl)c1)c1ccc(Cn2cc(Br)cn2)cc1` [IPK 000 180 17], 63.2%.
With `Cc1c(Cl)cccc1/N=C/c1ccc([N+](=O)[O-])o1` [IPK 000 167 54], the inhibition at 20 µM stood at 19.5%.
As to `O=C(CCc1ccccc1)N1CCN(Cc2ccccc2)CC1` [IPK 000 126 73], the inhibition at 20 µM was found to be 85.7%.
Regarding `ON=C(/C=C/c1ccccc1)/C=C/c1ccccc1` [IPK 000 168 10], the inhibition at 20 µM was 38%.
`C/C(=N\NC(=S)Nc1cccc(C)c1)c1ccccc1O` [IPK 000 173 06]: the inhibition at 20 µM was found to be 44%.
Regarding `O=C(c1ccc([N+](=O)[O-])o1)N1CCCc2ccccc21` [IPK 000 161 32], the inhibition at 20 µM was -37.9%.
As to `O=C(N/N=C/c1c(Cl)cccc1Cl)c1ccncc1` [IPK 000 170 33], the inhibition at 20 µM amounted to 49.5%.
